PMC9738796, “Design of Conjugates Based on Sesquiterpene Lactones with Polyalkoxybenzenes by “Click” Chemistry to Create Potential Anticancer Agents” (Molecules, 2022)
Read-outs that look alike come from different tables or passages of the source.

Key:
[1] = test system: Hep-2 (larynx carcinoma); test: MTT cell viability, Hep-2; type: cell-based; details: Homo sapiens, 24 h
Excerpt: (§1) In this study we used human cell culture of tumor origin—SH-SY5Y (neuroblastoma), HeLa (cervical tumor), Hep-2 (larynx carcinoma), A549 (adenocarcinomic human alveolar basal epithelial cells); and normal cell line Hek 293 (human embryonic kidneys)), provided by the Laboratory of Tumor Cell Genetics of the Scientific Research Institute of Carcinogenesis, N.N. Blokhin National Medical Research Center of Oncology, as well as the Institute of Cytology of the Russian Academy of Sciences. While being grown for experiments, cells were cultured at 37 °C in a humidified CO2 atmosphere (5%) in a nutrient medium DMEM (PanEco, Moscow, Russia) and MEM (PanEco, Moscow, Russia), containing fetal bovine serum (10% by volume) (Thermo Fisher Scientific, Paisley, UK), Glutamax (2 mM) (Gibco, Renfrewshire, UK), and penicillin-streptomycin (1% by volume) (PanEco, Moscow, Russia).
(§2) Cell viability was determined by MTT test as described earlier. Cells were seeded in a 96-well plate in the amount of 1 × 10^4 cells/200 µL and cultured at 37 °C in a humidified CO2 atmosphere (5%) in a nutrient medium DMEM (PanEco, Moscow, Russia) and MEM (PanEco, Moscow, Russia). After 24 h of incubation, […] aliquots of test compounds ([…]) dissolved in DMSO were added to the cell cultures, and cells were cultured under the same conditions for 24 h. […] DMSO also was added to the control wells in a volume of 1%.
(§3) After 24 h, […] of MTT (3-(4,5-dimethylthiazol-2-yl)-2,5-diphenyltetrazolium bromide, 5 mg/mL) was added to each well and the plates were additionally incubated for 2 h.
(§4) Using a plate analyzer (Cytation3, BioTek Instruments Inc., Winooski, VT, USA), the optical density was determined at 530 nm. The concentration value causing 50% inhibition of cell population growth (IC50) was determined from dose-dependent curves.

[2] = test system: SH-SY5Y cells; test: Glycolysis flux assay (Seahorse ECAR); type: cell-based, human; details: for glycolytic capacity (ECAR change relative to control): SH-SY5Y (Figure 3c); for decrease in ECAR: 100 µM, SH-SY5Y, kinetic curves (Figure 3d,e)
Protocol: The ability of compounds to suppress anaerobic glycolysis was studied using the Agilent Seahorse XF96e Analyzer (Seahorse Bioscience, Billerica, MA, USA) by the level of hydrogen proton production in the studied samples on cell lines of neuroblastoma SH-SY5Y [55].
The 30,000 SH-SY5Y cells per well were plated in an XF cell culture microplate (Seahorse Bioscience, Billerica, MA, USA). After plating cells, the microplate was kept overnight in a 37 °C, 5% CO2 incubator. On the following day the medium was aspirated, the cells washed and placed in serum-free, pyruvate-free and glucose-free medium (pH = 7.4). The microplate was kept for 45 min again in a 37° C, 5% CO2 incubator.
When SH-SY5Y cells were analyzed, we followed the procedure described in the Seahorse Glycolysis Stress Test kit. Briefly, initial extracellular acidification rate (ECAR) measurements were taken in the absence of glucose. […] This was followed by an injection of oligomycin from port C so that the final concentration of oligomycin in each well was […]. Lastly, a 25 mM final concentration of 2-deoxyglucose was injected from port D.
Data for each experimental condition derive from values obtained from a minimum of 5 separate wells.

[3] = test system: A549 (adenocarcinomic human alveolar basal epithelial cells); test: MTT cell viability, A549; type: cell-based; details: 24 h
Excerpt: as §1, §2, §3, §4

[4] = test system: HeLa (cervical tumor); test: MTT cell viability, HeLa; type: cell-based; details: Homo sapiens, 24 h
Excerpt: as §1, §2, §3, §4

[5] = test system: SH-SY5Y (neuroblastoma); test: MTT cell viability, SH-SY5Y; type: cell-based; details: Homo sapiens, 24 h
Excerpt: as §1, §2, §3, §4

[6] = test system: Hek 293 (human embryonic kidneys); test: MTT cell viability, normal Hek 293; type: cell-based; details: HEK293, 24 h
Excerpt: as §1, §2, §3, §4

[7] = test system: all cell lines (SH-SY5Y, HeLa, Hep-2, A549, Hek 293); test: MTT cytotoxicity, summary over all cell lines; type: cell-based; details: Homo sapiens; span over all cell lines
Excerpt: as §1
Cell viability was determined by MTT test as described earlier. Cells were seeded in a 96-well plate in the amount of 1 × 10^4 cells/200 µL and cultured at 37 °C in a humidified CO2 atmosphere (5%) in a nutrient medium DMEM (PanEco, Moscow, Russia) and MEM (PanEco, Moscow, Russia). […]
Using a plate analyzer (Cytation3, BioTek Instruments Inc., Winooski, VT, USA), the optical density was determined at 530 nm. […]

[8] = test system: HeLa (cervical tumor); details: HeLa column; cited from earlier work

Row | SMILES | IC50 [1] | IC50 [4] | IC50 [5] | glycolytic capacity (ECAR change relative to control) ([2]; 100 μM) | decrease in ECAR [2] | IC50 [3] | IC50 [6] | glycolysis (ECAR change relative to control) ([2]; 100 μM, SH-SY5Y (Figure 3b)) | IC50 [7] | IC50 [8]
1 | C=C1CCC2C(CNCCn3cc(COCc4ccc5c(c4)OCO5)nn3)C(=O)OC2C2C(=C)CCC12 [6a, (3R,3aS,9bS)-3-(((2-(4-((Benzo[d][1, 3]dioxol-5-ylmethoxy)methyl)-1H-1,2,3-triazol-1-yl)ethyl)amino)methyl)-6,9-dimethylenedecahydroazuleno [4,5-b]furan-2(9bH)-one] | 88.1 ± 2.66 µM | 62.4 ± 0.05 µM | 37.35 ± 0.28 µM | reaching a minimum | more than 50% | 85.65 ± 0.38 µM | 57 ± 1.24 µM |  |  | 
2 | C=C1CC[C@H]2[C@H](CNCCn3cc(COCc4ccc(OC)cc4)nn3)C(=O)O[C@@H]2C2C(=C)CCC12 (stereo partly drawn) [6b, (3R,3aS,9bS)-3-(((2-(4-(((4-Methoxybenzyl)oxy)methyl)-1H-1,2,3-triazol-1-yl)ethyl)amino)methyl)-6,9-dimethylenedecahydroazuleno [4,5-b]furan-2(9bH)-one] | > 100 µM | 61.52 ± 0.12 µM | 36.3 ± 2.38 µM |  |  | > 100 µM | 56.4 ± 1.03 µM |  |  | 
3 | C=C1CC[C@H]2[C@H](CNCCn3cc(COCc4cccc(OC)c4OC)nn3)C(=O)O[C@@H]2C2C(=C)CCC12 (stereo partly drawn) [6c, (3R,3aS,9bS)-3-(((2-(4-(((2,3-Dimethoxybenzyl)oxy)methyl)-1H-1,2,3-triazol-1-yl)ethyl)amino)methyl)-6,9-dimethylenedecahydroazuleno [4,5-b]furan-2(9bH)-one] | > 100 µM | 82.4 ± 1.14 µM | 94.9 ± 1.08 µM |  |  | > 100 µM | 59.8 ± 1.37 µM |  |  | 
4 | C=C1CC[C@H]2[C@H](CNCCn3cc(COCc4ccc(OC)c(OC)c4)nn3)C(=O)O[C@@H]2C2C(=C)CCC12 (stereo partly drawn) [6d, (3R,3aS,9bS)-3-(((2-(4-(((3,4-Dimethoxybenzyl)oxy)methyl)-1H-1,2,3-triazol-1-yl)ethyl)amino)methyl)-6,9-dimethylenedecahydroazuleno [4,5-b]furan-2(9bH)-one] | > 100 µM | > 100 µM | 57.8 ± 1.71 µM |  |  | > 100 µM | 69.47 ± 0.54 µM | reaching a minimum |  | 
5 | C[C@H]1CCC[C@]2(C)C[C@H]3OC(=O)C(CNCCn4cc(COCc5ccc6c(c5)OCO6)nn4)[C@H]3C=C12 (some centres unmarked) [7a] | 55.68 ± 0.52 µM | 39 ± 1.27 µM | 33.6 ± 1.27 µM |  | more than 50% | 29.3 ± 1.37 µM | 38.9 ± 1.23 µM |  | 29 to 55 µM | 
6 | COc1ccc(COCc2cn(CCNC[C@H]3C(=O)O[C@@H]4C[C@@]5(C)CCC[C@H](C)C5=C[C@@H]43)nn2)cc1 [7b, (3S,3aR,5S,8aR,9aR)-3-(((2-(4-(((4-Methoxybenzyl)oxy)methyl)-1H-1,2,3-triazol-1-yl)ethyl)amino)methyl)-5,8a-dimethyl-3,3a,6,7,8,8a,9,9a-octahydronaphtho [2,3-b]furan-2(5H)-one] | 67.16 ± 0.14 µM | 55.1 ± 0.94 µM | 41.7 ± 1.73 µM |  |  | 47.3 ± 1.52 µM | 42.3 ± 1.09 µM |  |  | 
7 | COc1cccc(COCc2cn(CCNC[C@H]3C(=O)O[C@@H]4C[C@@]5(C)CCC[C@H](C)C5=C[C@@H]43)nn2)c1OC [7c, (3S,3aR,5S,8aR,9aR)-3-(((2-(4-(((2,3-Dimethoxybenzyl)oxy)methyl)-1H-1,2,3-triazol-1-yl)ethyl)amino)methyl)-5,8a-dimethyl-3,3a,6,7,8,8a,9,9a-octahydronaphtho [2,3-b]furan-2(5H)-one] | 62.6 ± 0.72 µM | 46.6 ± 0.81 µM | 40 ± 1.32 µM |  |  | 53.11 ± 0.25 µM | 46.25 ± 0.22 µM |  |  | 
8 | COc1ccc(COCc2cn(CCNC[C@H]3C(=O)O[C@@H]4C[C@@]5(C)CCC[C@H](C)C5=C[C@@H]43)nn2)cc1OC [7d, (3S,3aR,5S,8aR,9aR)-3-(((2-(4-(((3,4-Dimethoxybenzyl)oxy)methyl)-1H-1,2,3-triazol-1-yl)ethyl)amino)methyl)-5,8a-dimethyl-3,3a,6,7,8,8a,9,9a-octahydronaphtho [2,3-b]furan-2(5H)-one] | 91 ± 2.85 µM | 81 ± 3.17 µM | 45.2 ± 1.24 µM |  |  | 83.5 ± 1.09 µM | 35.39 ± 0.29 µM |  |  | 
9 | C=C1C(=O)O[C@@H]2[C@H]3C(C)=CC[C@@]34O[C@@]4(C)CC[C@@H]12 [Arglabin, arglabin, reference compound] | 29.9 ± 0.93 µM |  | 34 ± 2.48 µM |  |  |  | 78 ± 2.05 µM |  |  | 20 µM

More lines, main results first:

Row | IC50 [1] | IC50 [4] | IC50 [5] | SMILES | glycolytic capacity (ECAR change relative to control) ([2]; 100 μM) | decrease in ECAR [2] | IC50 [3] | IC50 [6] | glycolysis (ECAR change relative to control) ([2]; 100 μM, SH-SY5Y (Figure 3b)) | IC50 [7] | IC50 [8]
10 | > 100 µM | 18 ± 0.32 µM | 19.3 ± 0.57 µM | C=C1CC[C@H]2C(CNCc3cn(Cc4ccc5c(c4)OCO5)nn3)C(=O)O[C@@H]2C2C(=C)CCC12 (some centres unmarked) [10a] |  | more than 50% | > 100 µM | 58.04 ± 0.07 µM |  |  | 
11 | 26.3 ± 0.38 µM | 16.6 ± 0.59 µM | 16.1 ± 0.46 µM | C=C1CC[C@H]2C(CNCc3cn(Cc4ccc(OC)cc4)nn3)C(=O)O[C@@H]2C2C(=C)CCC12 (some centres unmarked) [10b] |  |  | 25.2 ± 3.44 µM | 56.65 ± 0.05 µM |  |  | 
12 | > 100 µM | 79.59 ± 0.33 µM | 89.5 ± 2.57 µM | C=C1CC[C@H]2C(CNCc3cn(Cc4cccc(OC)c4OC)nn3)C(=O)O[C@@H]2C2C(=C)CCC12 (some centres unmarked) [10c] |  |  | > 100 µM | 66.29 ± 0.08 µM |  |  | 
13 | 82.2 ± 1.15 µM | 26.4 ± 2.39 µM | 21.83 ± 0.02 µM | C=C1CC[C@H]2C(CNCc3cn(Cc4ccc(OC)c(OC)c4)nn3)C(=O)O[C@@H]2C2C(=C)CCC12 (some centres unmarked) [10d] |  |  | > 100 µM | > 100 µM |  |  | 
14 | > 100 µM | 88.86 ± 0.21 µM | 71.8 ± 2 µM | C[C@H]1CCC[C@]2(C)C[C@H]3OC(=O)C(CNCc4cn(Cc5ccc6c(c5)OCO6)nn4)[C@H]3C=C12 (some centres unmarked) [11a] | reaching a minimum | more than 50% | 95.9 ± 1.5 µM | 61.43 ± 0.1 µM |  |  | 
15 | > 100 µM | 72.79 ± 0.07 µM | 60.38 ± 0.39 µM | COc1ccc(Cn2cc(CNCC3C(=O)O[C@@H]4C[C@@]5(C)CCC[C@H](C)C5=C[C@H]34)nn2)cc1 (some centres unmarked) [11b] |  |  | 70.3 ± 1.17 µM | 49.55 ± 0.33 µM |  |  | 
16 | > 100 µM | 88.2 ± 1.27 µM | > 100 µM | COc1cccc(Cn2cc(CNCC3C(=O)O[C@@H]4C[C@@]5(C)CCC[C@H](C)C5=C[C@H]34)nn2)c1OC (some centres unmarked) [11c] |  |  | > 100 µM | 67.91 ± 0.65 µM |  |  | 
17 | > 100 µM | 89.35 ± 0.4 µM | 56.1 ± 1.06 µM | COc1ccc(Cn2cc(CNCC3C(=O)O[C@@H]4C[C@@]5(C)CCC[C@H](C)C5=C[C@H]34)nn2)cc1OC (some centres unmarked) [11d] |  |  | 91.2 ± 1.54 µM | 59.6 ± 1.84 µM |  |  | 
